Experimental data: patent publication US10301355B2, “Method of using pharmaceutical compositions comprising selective peptide-based agonists of melanocortin 1 receptor” (University of Cincinnati, priority 2012, dated 2019)
“Also recorded” adds a separate entry of the source. Each block holds one compound with its values, some of them ahead of it.

Assays:
[1] = target: T1, MC1R (Homo sapiens, UniProt Q01726); assay: Stimulation of cAMP formation in cultured human melanocytes; type: cell-based; set-up: endogenous in cells; host or cells: cultured human melanocytes; settings: for cAMP compared to 10 nM αMSH: cultured human melanocytes
T1 sequence (Q01726 whole entry): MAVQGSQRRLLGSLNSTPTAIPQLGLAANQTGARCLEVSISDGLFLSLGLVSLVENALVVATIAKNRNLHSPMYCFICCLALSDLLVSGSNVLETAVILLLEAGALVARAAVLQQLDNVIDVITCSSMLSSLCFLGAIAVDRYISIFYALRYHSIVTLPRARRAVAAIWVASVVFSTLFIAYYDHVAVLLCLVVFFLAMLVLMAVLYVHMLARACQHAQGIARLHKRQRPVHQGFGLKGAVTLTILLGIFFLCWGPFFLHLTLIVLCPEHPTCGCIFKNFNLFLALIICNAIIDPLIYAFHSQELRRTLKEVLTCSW
Protocol: Peptides were tested on cultured human melanocytes for their capacity to activate MC1R, as measured by stimulating cAMP formation. After 45 minutes of treatment with different concentrations of peptides, cAMP levels were measured using a I^125-labeled radioimmunoassay kit.
(§1) Peptides were tested as described in Example 4 above on cultured human melanocytes for their capacity to activate MC1R, as measured by stimulating cAMP formation, and for their capacity for stimulating tyrosinase activity, the rate-limiting enzyme for melanin synthesis. The tested peptides were synthesized according to the formula: Ar(CH2)mX^1—X^2—CO—X^3—X^4—X^5-(Trp)n-NX^6R wherein X^1 and X^2 are absent, X^3 is His, X^5 is Arg, and X^6 is H. X^4 amino acids were in the D-stereoisomer form, unless otherwise noted.

[2] = system: tyrosinase; assay: Stimulation of tyrosinase activity in cultured human melanocytes; type: cell-based; settings: for TA compared to 10 nM αMSH: tyrosinase activity, cultured human melanocytes
Protocol: Peptides were tested on cultured human melanocytes for their capacity for stimulating tyrosinase activity, the rate-limiting enzyme for melanin synthesis. Melanocytes were treated every other day, for a total of 6 days, with increasing concentrations of peptides. Medium containing H^3-tyrosine, the substrate for tyrosinase, was added to melanocytes 24 hours before the end of the 6-day treatment. Tyrosinase activity was measured by determining the amount of ^3H2O generated as […] is catalyzed by tyrosinase for melanin synthesis.
as §1

[3] = target: T1, MC1R; assay: cAMP stimulation in heterologous cells expressing hMC1R; type: cell-based; set-up: expressed in transfected cells; settings: for HMC1R % MAX. ACTIVITY: cAMP, heterologous cells
Protocol: (§2) Receptor selectivity of peptide agonists for hMC1R was determined by stimulation of cAMP in heterologous cells expressing different human melanocortin receptors (MC1R, MC3R, MC4R, and MC5R).

[4] = system: UV-irradiated human melanocytes; assay: Repair of UV-induced cyclobutane pyrimidine dimers (CPD); type: cell-based; settings: for CPD removal compared with 10 nM α-MSH: peptide at 1 nM, 48 hours post UV
Protocol: To investigate the effects of peptides on the repair of UV-induced DNA damage, levels of cyclobutane pyrimidine dimers (CPD), the major form of DNA photoproducts, were measured in UV-irradiated human melanocytes with or without peptide treatment. Melanocytes were pretreated with the peptides for 4 days prior to, and for 48 hours post UV exposure, harvested, immunostained by a specific antibody for CPD, and analyzed by flow cytometry.

[5] = target: T2, hMC5R (Homo sapiens, UniProt P33032); assay: cAMP stimulation in heterologous cells expressing hMC5R; type: cell-based
T2 construct: expressed in transfected cells
T2 sequence (P33032 whole entry): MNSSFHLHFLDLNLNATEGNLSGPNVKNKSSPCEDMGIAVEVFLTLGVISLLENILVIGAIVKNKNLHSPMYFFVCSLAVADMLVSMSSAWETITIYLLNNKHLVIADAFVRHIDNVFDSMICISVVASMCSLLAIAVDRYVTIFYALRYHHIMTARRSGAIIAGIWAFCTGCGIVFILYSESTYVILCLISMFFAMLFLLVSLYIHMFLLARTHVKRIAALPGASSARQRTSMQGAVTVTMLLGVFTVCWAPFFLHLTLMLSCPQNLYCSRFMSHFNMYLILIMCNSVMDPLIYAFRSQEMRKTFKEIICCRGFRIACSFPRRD
Protocol: as §2

[6] = target: T3, hMC4R (Homo sapiens, UniProt P32245); assay: cAMP stimulation in heterologous cells expressing hMC4R; type: cell-based
T3 construct: expressed in transfected cells
T3 sequence (P32245 whole entry): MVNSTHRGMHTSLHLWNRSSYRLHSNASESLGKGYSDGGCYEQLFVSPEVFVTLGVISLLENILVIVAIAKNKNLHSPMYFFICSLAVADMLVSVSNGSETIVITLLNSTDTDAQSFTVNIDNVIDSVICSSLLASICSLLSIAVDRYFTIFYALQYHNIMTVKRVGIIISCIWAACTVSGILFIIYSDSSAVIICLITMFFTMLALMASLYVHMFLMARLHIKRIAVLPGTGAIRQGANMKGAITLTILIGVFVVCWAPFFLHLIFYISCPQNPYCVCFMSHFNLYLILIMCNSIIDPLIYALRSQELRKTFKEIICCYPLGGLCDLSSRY
Protocol: as §2

[7] = target: T4, hMC3R (Homo sapiens, UniProt P41968); assay: cAMP stimulation in heterologous cells expressing hMC3R; type: cell-based
T4 construct: expressed in transfected cells
T4 sequence (P41968 whole entry): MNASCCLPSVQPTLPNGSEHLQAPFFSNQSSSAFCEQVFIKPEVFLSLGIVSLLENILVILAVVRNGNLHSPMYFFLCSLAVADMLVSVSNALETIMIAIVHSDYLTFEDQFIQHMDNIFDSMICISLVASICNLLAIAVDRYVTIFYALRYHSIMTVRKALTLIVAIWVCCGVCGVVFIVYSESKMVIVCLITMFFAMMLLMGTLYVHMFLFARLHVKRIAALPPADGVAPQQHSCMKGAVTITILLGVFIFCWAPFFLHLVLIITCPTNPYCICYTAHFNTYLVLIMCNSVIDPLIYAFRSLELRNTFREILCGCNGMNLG
Protocol: as §2

[8] = system: UV-irradiated human melanocytes; assay: Repair of UV-induced 8-oxodG; type: cell-based
Protocol: To investigate the effects of peptides on repair of UV-induced DNA damage, levels of 8-oxodG, a major form of oxidative DNA damage, were measured in UV-irradiated human melanocytes with or without peptide treatment. […] Fluorescence intensity, which correlates with the amount of DNA damage, was quantified using ImagJ software.

[9] = Peptide storage stability by HPLC; type: physicochemical; settings: lyophilized, open air, room temperature, 4 months
Protocol: LK-513 (Ph(CH2)3CO-His-(D-4-Bip)-Arg-NHMe) was tested for stability and degradation over a storage period. The peptide was stored in a lyophilized form in open air at room temperature for 4 months. After 4 months, HPLC was performed on a test sample of the peptide in order to measure degradation, using standard methods (FIG. 1). […] Without being bound by theory, it is believed that the enhanced stability is a product of the absence of amide bonds between natural L-L-amino acids in the tripeptides and the existence of only one amide bond between natural amino acids in the tetrapeptides (Arg-Trp). Amide bonds between non-natural D- and natural L-amino acids are less prone to chemical and enzymatic hydrolysis, as evidenced by the FIG. 1. Further, the bulk and hydrophobicity of the X4 amino acid (D-Phe or a bulky hydrophobic analog thereof, such as D-4-Bip in the case of LK-513) shield the polar amid bonds of the peptide from chemical and enzymatic degradation.

[10] = human melanocytes, 6 days treatment
[11] = human melanocytes, 45 minutes of treatment

Compound: 4-BrC6H4CH2CO-His-(D-4-FPhe)-Arg-Trp-NH2 [208P]
cAMP compared to 10 nM αMSH [1]: >

Compound: 4-FC6H4CH2CO-His-(D-1-Nal)-Arg-NHEt [495P]
cAMP compared to 10 nM αMSH [1]: NR (NR = No Response/inactive at 10 nM)

Compound: 4-FC6H4CH2CO-His-(D-4-FPhe)-Arg-Trp-NH2 [205P]
TA compared to 10 nM αMSH [2]: ≥ | cAMP compared to 10 nM αMSH [1]: ≤

Compound: 4-FC6H4CH2CO-His-(D-4-tBuPhe)-Arg-NHEt [498P]
cAMP compared to 10 nM αMSH [1]: NR** (NR = No Response/inactive at 10 nM)

Compound: 4-IC6H4CH2CO-His-(D-Phe)-Arg-Trp-NH2 [488P]
cAMP compared to 10 nM αMSH [1]: >>

Compound: Ph(CH2)3CO-His-(D-1-Nal)-Arg-NHEt [491P]
cAMP compared to 10 nM αMSH [1]: NR (NR = No Response/inactive at 10 nM)

Continued, in another order:

cAMP compared to 10 nM αMSH [1]: NR (NR = No Response/inactive at 10 nM)
Compound: 4-FC6H4CH2CO-His-(D-2-Nal)-Arg-NHEt [496P]

cAMP compared to 10 nM αMSH [1]: NR (NR = No Response/inactive at 10 nM)
Compound: 4-FC6H4CH2CO-His-(D-4-Bip)-Arg-NHEt [497P]

HMC1R % MAX. ACTIVITY [3]: 128% | HMC5R % MAX. ACTIVITY ([5]; cAMP, heterologous cells): 39% | concentration giving maximal levels of cAMP [1, 11]: 10 nM | HMC4R % MAX. ACTIVITY ([6]; cAMP, heterologous cells): 102% | HMC3R % MAX. ACTIVITY ([7]; cAMP, heterologous cells): 85%
Compound: N=C(N)NCCC[C@H](NC(=O)[C@@H](Cc1ccccc1)NC(=O)[C@H](Cc1c[nH]cn1)NC(=O)CCCc1ccccc1)C(=O)N[C@@H](Cc1c[nH]c2ccccc12)C(N)=O [LK-184, Ph(CH2)3CO-His-(D-Phe)-Arg-Trp-NH2]
CPD removal compared with 10 nM α-MSH [4]: same effect at 1 nM on CPD removal as 10 nM a-MSH; also recorded: same effect at 1 nM on CPD removal as 10 nM α-MSH | effect on tyrosinase activity, comparison [2, 10]: comparable effects in tyrosinase activity

HMC1R % MAX. ACTIVITY [3]: 111% | HMC5R % MAX. ACTIVITY ([5]; cAMP, heterologous cells): 34% | potency relative to a-MSH in activating MC1R and stimulating melanogenesis [2, 10]: at least 100 times | cAMP compared to 10 nM αMSH [1]: > | potency in stimulating cAMP formation, comparison [1, 11]: more potent than LK-184 | potency at hMC4R compared with LK-184 [6]: about ten times less potent | HMC4R % MAX. ACTIVITY ([6]; cAMP, heterologous cells): 39% | HMC3R % MAX. ACTIVITY ([7]; cAMP, heterologous cells): 7%
Compound: N=C(N)NCCC[C@H](NC(=O)[C@@H](Cc1cccc2ccccc12)NC(=O)[C@H](Cc1c[nH]cn1)NC(=O)CCCc1ccccc1)C(=O)N[C@@H](Cc1c[nH]c2ccccc12)C(N)=O [LK-467, Ph(CH2)3CO-His-(D-1-Nal)-Arg-Trp-NH2]
reduction of CPD levels, comparison with LK-184 ([4]; 48 hours after UV exposure): as effective as LK-184 | CPD removal compared with 10 nM α-MSH [4]: same effect at 1 nM on CPD removal as 10 nM a-MSH; also recorded: same effect at 1 nM on CPD removal as 10 nM α-MSH | effect on tyrosinase activity, comparison [2, 10]: comparable effects in tyrosinase activity | reduction of 8-oxodG levels, comparison with LK-184 ([8]; 24 hours after UV exposure): as effective as LK-184

potency in activation of MC1R compared with MT-II [3]: about as potent as MT-II | HMC1R % MAX. ACTIVITY [3]: 88% | binding of MC5R [5]: do not bind | HMC5R EC50 ([5]; cAMP, heterologous cells): INACTIVE | concentration at which significant stimulation of tyrosinase activity begins [2, 10]: 1 nM | TA compared to 10 nM αMSH [2]: < | cAMP compared to 10 nM αMSH [1]: < | binding of MC4R [6]: do not bind | HMC4R EC50 ([6]; cAMP, heterologous cells): INACTIVE | binding of MC3R [7]: do not bind | HMC3R EC50 ([7]; cAMP, heterologous cells): INACTIVE
Compound: N=C(N)NCCC[C@H](NC(=O)[C@@H](Cc1ccc(-c2ccccc2)cc1)NC(=O)[C@H](Cc1c[nH]cn1)NC(=O)CCCc1ccccc1)C(N)=O [LK-511, Ph(CH2)3CO-His-(D-4-Bip)-Arg-NH2]
potency in stimulating cAMP formation, comparison [1, 11]: about ten times less potent than a-MSH; also recorded: about ten times less potent than α-MSH

potency in activation of MC1R compared with MT-II [3]: about as potent as MT-II | HMC1R % MAX. ACTIVITY [3]: 95% | binding of MC5R [5]: do not bind | concentration at which significant stimulation of tyrosinase activity begins [2, 10]: 1 nM | TA compared to 10 nM αMSH [2]: < | cAMP compared to 10 nM αMSH [1]: < | binding of MC4R [6]: do not bind | binding of MC3R [7]: do not bind
Compound: CNC(=O)[C@H](CCCNC(=N)N)NC(=O)[C@@H](Cc1ccc(-c2ccccc2)cc1)NC(=O)[C@H](Cc1c[nH]cn1)NC(=O)CCCc1ccccc1 [LK-513, Ph(CH2)3CO-His-(D-4-Bip)-Arg-NHMe]
potency in stimulating cAMP formation, comparison [1, 11]: about ten times less potent than a-MSH; also recorded: about ten times less potent than α-MSH | stability and degradation on storage (HPLC) [9]: highly stable and resistant to degradation, showing only a single HPLC peak; also recorded: highly stable and substantially free of degradation

potency in activation of MC1R compared with MT-II [3]: about as potent as MT-II | HMC1R % MAX. ACTIVITY [3]: 94% | binding of MC5R [5]: do not bind | concentration at which significant stimulation of tyrosinase activity begins [2, 10]: 1 nM | effect on tyrosinase activity, comparison [2, 10]: the most effective | TA compared to 10 nM αMSH [2]: < | cAMP compared to 10 nM αMSH [1]: < | binding of MC4R [6]: do not bind | binding of MC3R [7]: do not bind
Compound: CC(C)(C)c1ccc(C[C@@H](NC(=O)[C@H](Cc2c[nH]cn2)NC(=O)CCCc2ccccc2)C(=O)N[C@@H](CCCNC(=N)N)C(N)=O)cc1 [LK-514, Ph(CH2)3CO-His-(D-4-tBuPhe)-Arg-NH2]
potency in stimulating cAMP formation, comparison [1, 11]: about ten times less potent than a-MSH; also recorded: more potent than LK-511 or 513; also recorded: about ten times less potent than α-MSH; also recorded: more potent than LK-511 or LK-513 | reduction of 8-oxodG levels compared with 1 nM α-MSH ([8]; peptide at 100 nM, 24 hours post UV): greater effect than 1 nM α-MSH

TA compared to 10 nM αMSH [2]: NR (NR = No Response/inactive at 10 nM)
Compound: Ph(CH2)3CO-His-(D-1-Nal)-Arg-NH2 [510P]

TA compared to 10 nM αMSH [2]: NR (NR = No Response/inactive at 10 nM)
Compound: Ph(CH2)3CO-His-(D-1-Nal)-Arg-NHMe [512P]
